Results taken from US20010018209A1, “Cell compositions” (Takara Shuzo Co., Ltd., priority 1996, published 2001).

Legend:
HL-60 cells [1] = experiment: Cell growth inhibitory activity by MTT, absorbance at 590 nm (HL-60 compared with HUVEC); assay type: cell-based; conditions: final 1-100 μM, 48 hours
[2] = system: fibroblasts, NIH/3T3 cells (ATCC CRL-1658); experiment: Cell growth inhibitory activity, MTT, observed under a microscope; assay type: cell-based; conditions: 48 hours
Procedure: (§1) (3) The fibroblasts, NIH/3T3 cells (ATCC CRL-1658), were dispersed with trypsin according to a conventional method and suspended in Dulbecco modified Eagle's culture medium containing 10% bovine serum at a concentration of 5× 10^4 cells/ml. Then, each 90 μl portion thereof was distributed into each well of a 96-well microtiter plate. To each well was added an aqueous solution (10 μl) of 15.6, 31.3, 62.5, 125, 250, 500 or 1,000 μM cyclopentenone, or water (10 μl) as a control and the cells on that plate were incubated at 37° C. for 48 hours in the presence of 5% CO2. Further, 5 mg/ml MTT phosphate buffered saline (10 μl) was added and the incubation was continued for additional 4 hours. Cell growth was observed under a microscope and the apoptosis inducing activity was estimated as cell growth inhibitory activity.

HL-60 cells [3] = experiment: as above; assay type: cell-based; conditions: 48 hours
Procedure: as §1
The same procedure was repeated with respect to HL-60 cells except that the cells were cultured in RPMI1640 culture medium containing 10% fetal bovine serum.

cancer cells = experiment: Apoptosis after addition to a culture broth of cancer cells (general statement); assay type: cell-based; conditions: within one to several days after addition
normal cells = experiment: Toxicity / apoptosis against normal cells (general statement); assay type: cell-based
mouse = experiment: Toxicity on administration to mouse (general statement); conditions: in vivo
[4] = system: Myeloma cells (P3X63Ag8U.1, ATCC CRL-1597); experiment: Apoptosis induction / living cell number in cultured myeloma cells (trypan blue, microscope); assay type: cell-based; conditions: 1 mg/ml, 60 hours
Procedure: Myeloma cells (P3X63Ag8U.1, ATCC CRL-1597) were cultured at 37° C. in RPMI1640 culture medium (manufactured by Gibco) containing 10% fetal bovine serum (manufactured by JRH Bioscience) treated at 56° C. for 30 minutes and they were suspended in RPMI1640 culture medium containing 10% fetal bovine serum at a concentration of 2.5×10^5 cells/4.5 ml. On the other hand, a dextran sulfate (molecular weight: 0.5 million, manufactured by Oncor) was dissolved in 50 mM HEPES buffer (pH 7.0) containing 120 mM sodium chloride at a concentration of 10 mg/ml and sterilized by filtration. This solution (0.5 ml) was added to the above suspension (4.5 ml) and incubated at 37° C. for 60 hours in the presence of 5% CO2.
The incubated cells were observed under a microscope to examine the degree of growth and cell morphology. […] After initiation of incubation, the living cell number was counted with time by trypan blue staining.
Next, A dextran sulfate (molecular weight: 0.5 million, manufactured by Oncor) was dissolved in 50 mM HEPES buffer (pH 7.0) containing 120 mM sodium chloride in concentration of 10 mg/ml, and treated by heating at 120° C. for 20 minutes. According to the same manner as described above, apoptosis inducing activity was determined by using the dextran sulfate.

Compound: O=C1C=CC(O)C1O (centres unmarked) [cyclopentenone, 4,5-dihydroxy-2-cyclopenten-1-one]
- cell growth inhibitory activity, HL-60 compared with HUVEC (HL-60 cells [1]): stronger cell growth inhibitory activity to the cancer cells, HL-60 cells than that to the normal cells, HUVEC cells
- cell growth ([2]; final concentration of 12.5 μM): the same cell growth as that of the water-added control group
- cell growth ([2]; final concentration of 25 μM): no cell growth was observed
- selectivity, tumor cell line HL-60 compared with non-tumor cell line NIH/3T3 (HL-60 cells [3]): selective cell growth inhibitory activity and cytocidal activity
- cell growth (HL-60 cells [3]; final concentration of 6.25 μM): no cell growth was observed
- cytocidal effect (HL-60 cells [3]; final concentration of 6.25 μM): almost all the cells were killed
- apoptosis of cancer cells (cancer cells): apoptosis of the cancer cells is caused
- toxicity against normal cells (normal cells): does not show any toxicity against normal cells
- toxicity in mouse (mouse): does not show any toxicity against mouse

Compound: dextran sulfate
- apoptosis inducing activity [4]: strong apoptosis inducing activity
- cell morphology under a microscope (characteristics of apoptosis) [4]: exhibited characteristics of apoptosis such as cell shrinkage, cell nuclear fragmentation
